Series [1] has as its target T1, STS (Homo sapiens, UniProt P08842).
T1 sequence (P08842 22-583): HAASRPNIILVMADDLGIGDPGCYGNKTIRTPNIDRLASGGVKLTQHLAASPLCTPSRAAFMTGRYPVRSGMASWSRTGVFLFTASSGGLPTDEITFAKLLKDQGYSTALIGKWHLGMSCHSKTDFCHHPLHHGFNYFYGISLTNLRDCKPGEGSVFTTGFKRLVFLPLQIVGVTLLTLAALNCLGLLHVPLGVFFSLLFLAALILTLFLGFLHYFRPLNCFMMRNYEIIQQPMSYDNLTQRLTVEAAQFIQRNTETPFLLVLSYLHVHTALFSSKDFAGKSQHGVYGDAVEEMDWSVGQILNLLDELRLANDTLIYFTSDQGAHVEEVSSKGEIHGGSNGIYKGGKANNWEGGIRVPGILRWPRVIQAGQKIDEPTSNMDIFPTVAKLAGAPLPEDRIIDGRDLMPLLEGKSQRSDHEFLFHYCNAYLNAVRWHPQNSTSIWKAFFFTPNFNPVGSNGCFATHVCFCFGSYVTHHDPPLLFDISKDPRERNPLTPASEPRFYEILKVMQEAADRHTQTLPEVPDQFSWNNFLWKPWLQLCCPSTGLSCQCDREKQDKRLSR
Briefly: In vitro inhibition of STS. It is filed as cell-based. The following applies: STS IC50, JEG-3 cell preparation; sulfamates.

The test system of series [2] is STS. The note with it: read-out: STS IC50; placental microsome preparation; cited from earlier work.

In turn, `N#Cc1ccc(N(Cc2ccc(OS(N)(=O)=O)c(F)c2F)n2cnnc2)cc1` [Compound 13, 4-{[(4-Cyanophenyl)(4H-1,2,4-triazol-4-yl)amino]methyl}-2,3-difluorophenyl sulfamate] had an IC50 in series [1] of 48 ± 2 nM. Same read-out and setting: under `N#Cc1ccc(N(Cc2ccc(OS(N)(=O)=O)cc2F)n2cnnc2)cc1` [Compound 11, 4-{[(4-Cyanophenyl)(4H-1,2,4-triazol-4-yl)amino]methyl}-3-fluorophenyl sulfamate] stands 21 ± 3.5 nM; under `N#Cc1ccc(N(Cc2ccc(OS(N)(=O)=O)c(C(F)F)c2)n2cnnc2)cc1` [Compound 15, 4-{[(4-Cyanophenyl)(4H-1,2,4-triazol-4-yl)amino]methyl}-2-(difluoromethyl)phenyl sulfamate], 60 ± 2.4 nM; under `N#Cc1ccc(N(Cc2c(Cl)cc(OS(N)(=O)=O)cc2Cl)n2cnnc2)cc1` [Compound 18, 3,5-Dichloro-4-{[(4-cyanophenyl)(4H-1,2,4-triazol-4-yl)amino]methyl}phenyl sulfamate], 44 ± 6 nM.

For the compound `NS(=O)(=O)Oc1ccc(CN(c2ccc3c(c2)OC(F)(F)O3)n2cnnc2)cc1` [Compound 22, 4-{[(2,2-Difluorobenzo[d][1,3]dioxol-5-yl)(4H-1,2,4-triazol-4-yl)amino]methyl}phenyl sulfamate], in series [1], the IC50 is 52 ± 6.6 nM. Still for that read-out and setting: under `NS(=O)(=O)Oc1ccc(CN(c2ccccc2)n2cnnc2)cc1` [Compound 20, 4-{[Phenyl(4H-1,2,4-triazol-4-yl)amino]methyl}phenyl sulfamate] stands 1560 ± 116 nM; under `N#Cc1ccc(N(Cc2ccc(OS(N)(=O)=O)cc2Br)n2cnnc2)cc1` [Compound 19, 3-Bromo-4-{[(4-cyanophenyl)(4H-1,2,4-triazol-4-yl)amino]methyl}phenyl sulfamate], 29 ± 2 nM; under `N#Cc1ccc(N(Cc2c(F)cc(OS(N)(=O)=O)cc2F)n2cnnc2)cc1` [Compound 12, 4-{[(4-Cyanophenyl)(4H-1,2,4-triazol-4-yl)amino]methyl}-3,5-difluorophenyl sulfamate], 39 ± 1 nM. On the same count and under the same terms, the same measure for `NS(=O)(=O)Oc1ccc(CN(c2cc(F)cc(F)c2)n2cnnc2)cc1` [Compound 21, 4-{[(3,5-Difluorophenyl)(4H-1,2,4-triazol-4-yl)amino]methyl}phenyl sulfamate]: 45 ± 5 nM.

Take `C[C@]12CC[C@@H]3c4cc(C(F)F)c(OS(N)(=O)=O)cc4CC[C@H]3[C@@H]1CCC2=O` [2-difluoromethyloestrone 3-O-sulfamate]: the IC50 in series [2] was 0.1 nM. As for `Oc1ccc(CN(c2ccc3c(c2)OC(F)(F)O3)n2cnnc2)cc1` [Compound 22 e, 4-{[(2,2-Difluorobenzo[1,3]dioxol-5-yl)-[1,2,4]triazol-4-ylamino]methyl}phenol], the melting point was in the range of 182 to 185 °C. In series [1], `N#Cc1ccc(N(Cc2ccc(OS(N)(=O)=O)cc2Cl)n2cnnc2)cc1` [Compound 17, 3-Chloro-4-{[(4-cyanophenyl)(4H-1,2,4-triazol-4-yl)amino]methyl}phenyl sulfamate] returned an IC50 of 40 ± 5 nM.

These data come from PMC3743159 (Chemmedchem, 2013).
